From ChEMBL document CHEMBL4354826, “Structure-Based Discovery of SD-36 as a Potent, Selective, and Efficacious PROTAC Degrader of STAT3 Protein” (J Med Chem, 2019) come the findings set out here.

The target in the experiment is Signal transducer and activator of transcription 3 (Homo sapiens, UniProt P40763). The experiment can be described thus: Binding affinity to STAT3 (unknown origin).
Signal transducer and activator of transcription 3, sequence (P40763 whole entry): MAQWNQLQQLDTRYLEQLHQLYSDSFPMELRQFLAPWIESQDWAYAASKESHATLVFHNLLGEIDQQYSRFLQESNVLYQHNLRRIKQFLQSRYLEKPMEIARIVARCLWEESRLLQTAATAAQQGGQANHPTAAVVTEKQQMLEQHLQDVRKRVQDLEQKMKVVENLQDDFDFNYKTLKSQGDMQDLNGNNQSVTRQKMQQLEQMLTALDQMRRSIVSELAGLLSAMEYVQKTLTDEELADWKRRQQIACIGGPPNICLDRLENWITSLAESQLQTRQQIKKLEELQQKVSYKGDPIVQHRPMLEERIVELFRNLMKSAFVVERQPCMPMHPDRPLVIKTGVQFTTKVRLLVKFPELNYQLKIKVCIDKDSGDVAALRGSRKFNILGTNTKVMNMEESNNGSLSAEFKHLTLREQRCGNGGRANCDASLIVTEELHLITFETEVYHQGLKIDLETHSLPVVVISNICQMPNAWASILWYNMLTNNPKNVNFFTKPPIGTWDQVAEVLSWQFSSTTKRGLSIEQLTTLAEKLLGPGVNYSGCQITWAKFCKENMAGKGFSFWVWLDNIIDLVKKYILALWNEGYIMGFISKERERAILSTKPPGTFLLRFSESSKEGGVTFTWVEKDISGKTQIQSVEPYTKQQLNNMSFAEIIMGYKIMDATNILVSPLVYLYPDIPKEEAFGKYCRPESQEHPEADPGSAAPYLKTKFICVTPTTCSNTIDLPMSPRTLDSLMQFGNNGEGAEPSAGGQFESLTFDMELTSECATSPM

One may read the Ki as a measure of affinity in units of concentration, obtained from inhibition or displacement. Consider `NC(=O)CC[C@H](NC(=O)[C@@H]1CC[C@@H]2CCCC[C@H](NC(=O)c3cc4cc(CP(=O)(O)O)ccc4[nH]3)C(=O)N21)C(=O)NCc1ccccc1`, for which the affinity, expressed as Ki, was 761 nM.
